# Experimental data reported in patent EP1285920A1, “C10 Ester sustituted taxanes as antitumor agents” (Florida State University Research Foundation, Inc., priority 2001, dated 2003).
# Test system: HCT116
# Test: In Vitro cytotoxicity measured by the cell colony formation assay
# Format: cell-based, human
# Details: Homo sapiens, HCT-116; read-out: IN VITRO ID 50 HCT116
# Description: Four hundred cells (HCT116) were plated in 60 mm Petri dishes containing 2.7 mL of medium (modified McCoy's 5a medium containing 10% fetal bovine serum and 100 units/mL penicillin and […] streptomycin). The cells were incubated in a CO2 incubator at 37 °C for 5 h for attachment to the bottom of Petri dishes. The compounds identified in Example 2 were made up fresh in medium at ten times the final concentration, and then 0.3 mL of this stock solution was added to the 2.7 mL of medium in the dish. The cells were then incubated with drugs for 72 h at 37 °C. At the end of incubation the drug-containing media were decanted, the dishes were rinsed with 4 mL of Hank's Balance Salt Solution (HBSS), 5 mL of fresh medium was added, and the dishes were returned to the incubator for colony formation. The cell colonies were counted using a colony counter after incubation for 7 days.
row,SMILES,IC50 [nM]
1,CCC(=O)O[C@H]1C(=O)[C@@]2(C)[C@H]([C@H](OC(=O)c3ccccc3)[C@]3(O)C[C@H](OC(=O)[C@H](O)[C@@H](NC(=O)OC(C)(C)C)c4cccnc4)C(C)=C1C3(C)C)[C@]1(OC(C)=O)CO[C@@H]1C[C@@H]2O [Compound 0517],< 10
2,CCC(=O)O[C@H]1C(=O)[C@@]2(C)[C@H]([C@H](OC(=O)c3ccccc3)[C@]3(O)C[C@H](OC(=O)[C@H](O)[C@@H](NC(=O)OC(C)(C)C)c4ccncc4)C(C)=C1C3(C)C)[C@]1(OC(C)=O)CO[C@@H]1C[C@@H]2O [Compound 0521],< 1
3,CCC(=O)O[C@H]1C(=O)[C@@]2(C)[C@H]([C@H](OC(=O)c3ccccc3)[C@]3(O)C[C@H](OC(=O)[C@H](O)[C@@H](NC(=O)OC(C)(C)C)c4ccoc4)C(C)=C1C3(C)C)[C@]1(OC(C)=O)CO[C@@H]1C[C@@H]2O [Compound 0549],< 10
4,CCC(=O)O[C@H]1C(=O)[C@@]2(C)[C@H]([C@H](OC(=O)c3ccccc3)[C@]3(O)C[C@H](OC(=O)[C@H](O)[C@@H](NC(=O)OC(C)(C)C)c4ccsc4)C(C)=C1C3(C)C)[C@]1(OC(C)=O)CO[C@@H]1C[C@@H]2O [Compound 0562],< 1
5,CCC(=O)O[C@H]1C(=O)[C@@]2(C)[C@H]([C@H](OC(=O)c3ccccc3)[C@]3(O)C[C@H](OC(=O)[C@H](O)[C@@H](NC(=O)OC(C)(C)C)C4CC4)C(C)=C1C3(C)C)[C@]1(OC(C)=O)CO[C@@H]1C[C@@H]2O [Compound 0578],< 1
6,CCC(=O)O[C@H]1C(=O)[C@@]2(C)[C@H]([C@H](OC(=O)c3ccccc3)[C@]3(O)C[C@H](OC(=O)[C@H](O)[C@@H](NC(=O)OC(C)(C)C)C(C)C)C(C)=C1C3(C)C)[C@]1(OC(C)=O)CO[C@@H]1C[C@@H]2O [Compound 0583],< 10
7,CCC(=O)O[C@H]1C(=O)[C@@]2(C)[C@H]([C@H](OC(=O)c3ccccc3)[C@]3(O)C[C@H](OC(=O)[C@H](O)[C@@H](NC(=O)OC(C)(C)C)C4CCC4)C(C)=C1C3(C)C)[C@]1(OC(C)=O)CO[C@@H]1C[C@@H]2O [Compound 0596],< 10
8,CCC(=O)O[C@H]1C(=O)[C@@]2(C)[C@H]([C@H](OC(=O)c3ccccc3)[C@]3(O)C[C@H](OC(=O)[C@H](O)[C@@H](NC(=O)OC(C)(C)C)c4ccc([N+](=O)[O-])cc4)C(C)=C1C3(C)C)[C@]1(OC(C)=O)CO[C@@H]1C[C@@H]2O [Compound 0602],< 1
9,CCC(=O)O[C@H]1C(=O)[C@@]2(C)[C@H]([C@H](OC(=O)c3ccccc3)[C@]3(O)C[C@H](OC(=O)[C@H](O)[C@H](C=C(C)C)NC(=O)c4ccccc4)C(C)=C1C3(C)C)[C@]1(OC(C)=O)CO[C@@H]1C[C@@H]2O [Compound 0625],< 1
10,CCC(=O)O[C@H]1C(=O)[C@@]2(C)[C@H]([C@H](OC(=O)c3ccccc3)[C@]3(O)C[C@H](OC(=O)[C@H](O)[C@@H](NC(=O)c4ccccc4)c4ccccn4)C(C)=C1C3(C)C)[C@]1(OC(C)=O)CO[C@@H]1C[C@@H]2O [Compound 0634],< 10
11,CCC(=O)O[C@H]1C(=O)[C@@]2(C)[C@H]([C@H](OC(=O)c3ccccc3)[C@]3(O)C[C@H](OC(=O)[C@H](O)[C@@H](NC(=O)c4ccccc4)c4cccnc4)C(C)=C1C3(C)C)[C@]1(OC(C)=O)CO[C@@H]1C[C@@H]2O [Compound 0647],12
12,CCC(=O)O[C@H]1C(=O)[C@@]2(C)[C@H]([C@H](OC(=O)c3ccccc3)[C@]3(O)C[C@H](OC(=O)[C@H](O)[C@@H](NC(=O)c4ccccc4)c4ccncc4)C(C)=C1C3(C)C)[C@]1(OC(C)=O)CO[C@@H]1C[C@@H]2O [Compound 0659],< 1
13,CCC(=O)O[C@H]1C(=O)[C@@]2(C)[C@H]([C@H](OC(=O)c3ccccc3)[C@]3(O)C[C@H](OC(=O)[C@H](O)[C@@H](NC(=O)c4ccccc4)c4ccsc4)C(C)=C1C3(C)C)[C@]1(OC(C)=O)CO[C@@H]1C[C@@H]2O [Compound 0691],< 1
14,CCC(=O)O[C@H]1C(=O)[C@@]2(C)[C@H]([C@H](OC(=O)c3ccccc3)[C@]3(O)C[C@H](OC(=O)[C@H](O)[C@@H](NC(=O)c4ccccc4)C(C)C)C(C)=C1C3(C)C)[C@]1(OC(C)=O)CO[C@@H]1C[C@@H]2O [Compound 0719],< 10
15,CCC(=O)O[C@H]1C(=O)[C@@]2(C)[C@H]([C@H](OC(=O)c3ccccc3)[C@]3(O)C[C@H](OC(=O)[C@H](O)[C@@H](NC(=O)c4ccccc4)C4CCC4)C(C)=C1C3(C)C)[C@]1(OC(C)=O)CO[C@@H]1C[C@@H]2O [Compound 0720],< 10
16,CCC(=O)O[C@H]1C(=O)[C@@]2(C)[C@H]([C@H](OC(=O)c3ccccc3)[C@]3(O)C[C@H](OC(=O)[C@H](O)[C@@H](NC(=O)c4ccccc4)c4ccc([N+](=O)[O-])cc4)C(C)=C1C3(C)C)[C@]1(OC(C)=O)CO[C@@H]1C[C@@H]2O [Compound 0732],< 10

row,SMILES,IC50 [nM]
1,CC(=O)O[C@@]12CO[C@@H]1C[C@H](O)[C@@]1(C)C(=O)[C@H](OC(=O)C3CC3)C3=C(C)[C@@H](OC(=O)[C@H](O)[C@@H](NC(=O)OC(C)(C)C)c4ccco4)C[C@@](O)([C@@H](OC(=O)c4ccccc4)[C@H]21)C3(C)C [Compound 0843],< 1
2,CC(=O)O[C@@]12CO[C@@H]1C[C@H](O)[C@@]1(C)C(=O)[C@H](OC(=O)C3CC3)C3=C(C)[C@@H](OC(=O)[C@H](O)[C@@H](NC(=O)OC(C)(C)C)C4CC4)C[C@@](O)([C@@H](OC(=O)c4ccccc4)[C@H]21)C3(C)C [Compound 0860],< 1
3,CC(=O)O[C@@]12CO[C@@H]1C[C@H](O)[C@@]1(C)C(=O)[C@H](OC(=O)C3CC3)C3=C(C)[C@@H](OC(=O)[C@H](O)[C@@H](NC(=O)OC(C)(C)C)c4ccc([N+](=O)[O-])cc4)C[C@@](O)([C@@H](OC(=O)c4ccccc4)[C@H]21)C3(C)C [Compound 0879],< 1
4,CC(=O)O[C@@]12CO[C@@H]1C[C@H](O)[C@@]1(C)C(=O)[C@H](OC(=O)C3CC3)C3=C(C)[C@@H](OC(=O)[C@H](O)[C@@H](NC(=O)OC(C)(C)C)c4ccccc4)C[C@@](O)([C@@H](OC(=O)c4ccccc4)[C@H]21)C3(C)C [Compound 0882],< 1
5,CC(=O)O[C@@]12CO[C@@H]1C[C@H](O)[C@@]1(C)C(=O)[C@H](OC(=O)C3CC3)C3=C(C)[C@@H](OC(=O)[C@H](O)[C@H](C=C(C)C)NC(=O)c4ccccc4)C[C@@](O)([C@@H](OC(=O)c4ccccc4)[C@H]21)C3(C)C [Compound 0890],< 1
6,CC(=O)O[C@@]12CO[C@@H]1C[C@H](O)[C@@]1(C)C(=O)[C@H](OC(=O)C3CC3)C3=C(C)[C@@H](OC(=O)[C@H](O)[C@@H](NC(=O)c4ccccc4)c4cccs4)C[C@@](O)([C@@H](OC(=O)c4ccccc4)[C@H]21)C3(C)C [Compound 0919],< 1
7,CC(=O)O[C@@]12CO[C@@H]1C[C@H](O)[C@@]1(C)C(=O)[C@H](OC(=O)C3CC3)C3=C(C)[C@@H](OC(=O)[C@H](O)[C@@H](NC(=O)c4ccccc4)C4CC4)C[C@@](O)([C@@H](OC(=O)c4ccccc4)[C@H]21)C3(C)C [Compound 0923],< 1
8,CC(=O)O[C@@]12CO[C@@H]1C[C@H](O)[C@@]1(C)C(=O)[C@H](OC(=O)C3CC3)C3=C(C)[C@@H](OC(=O)[C@H](O)[C@@H](NC(=O)c4ccccc4)c4ccccc4)C[C@@](O)([C@@H](OC(=O)c4ccccc4)[C@H]21)C3(C)C [Compound 0937],< 10
9,CCCC(=O)O[C@H]1C(=O)[C@@]2(C)[C@H]([C@H](OC(=O)c3ccccc3)[C@]3(O)C[C@H](OC(=O)[C@H](O)[C@@H](NC(=O)OC(C)(C)C)c4cccnc4)C(C)=C1C3(C)C)[C@]1(OC(C)=O)CO[C@@H]1C[C@@H]2O [Compound 0966],< 10
10,CCCC(=O)O[C@H]1C(=O)[C@@]2(C)[C@H]([C@H](OC(=O)c3ccccc3)[C@]3(O)C[C@H](OC(=O)[C@H](O)[C@@H](NC(=O)OC(C)(C)C)c4ccncc4)C(C)=C1C3(C)C)[C@]1(OC(C)=O)CO[C@@H]1C[C@@H]2O [Compound 0978],< 1
11,CCCC(=O)O[C@H]1C(=O)[C@@]2(C)[C@H]([C@H](OC(=O)c3ccccc3)[C@]3(O)C[C@H](OC(=O)[C@H](O)[C@@H](NC(=O)OC(C)(C)C)C4CC4)C(C)=C1C3(C)C)[C@]1(OC(C)=O)CO[C@@H]1C[C@@H]2O [Compound 1020],< 1
12,CCCC(=O)O[C@H]1C(=O)[C@@]2(C)[C@H]([C@H](OC(=O)c3ccccc3)[C@]3(O)C[C@H](OC(=O)[C@H](O)[C@@H](NC(=O)OC(C)(C)C)C(C)C)C(C)=C1C3(C)C)[C@]1(OC(C)=O)CO[C@@H]1C[C@@H]2O [Compound 1031],< 10
13,CCCC(=O)O[C@H]1C(=O)[C@@]2(C)[C@H]([C@H](OC(=O)c3ccccc3)[C@]3(O)C[C@H](OC(=O)[C@H](O)[C@@H](NC(=O)OC(C)(C)C)C4CCC4)C(C)=C1C3(C)C)[C@]1(OC(C)=O)CO[C@@H]1C[C@@H]2O [Compound 1044],< 1
14,CCCC(=O)O[C@H]1C(=O)[C@@]2(C)[C@H]([C@H](OC(=O)c3ccccc3)[C@]3(O)C[C@H](OC(=O)[C@H](O)[C@@H](NC(=O)OC(C)(C)C)c4ccccc4)C(C)=C1C3(C)C)[C@]1(OC(C)=O)CO[C@@H]1C[C@@H]2O [Compound 1060],< 1
15,CC(=O)O[C@@]12CO[C@@H]1C[C@H](O)[C@@]1(C)C(=O)[C@H](OC(=O)c3cccs3)C3=C(C)[C@@H](OC(=O)[C@H](O)[C@H](C=C(C)C)NC(=O)OC(C)(C)C)C[C@@](O)([C@@H](OC(=O)c4ccccc4)[C@H]21)C3(C)C [Compound 1879],< 10
16,CC(=O)O[C@@]12CO[C@@H]1C[C@H](O)[C@@]1(C)C(=O)[C@H](OC(=O)c3cccs3)C3=C(C)[C@@H](OC(=O)[C@H](O)[C@@H](NC(=O)OC(C)(C)C)c4ccccn4)C[C@@](O)([C@@H](OC(=O)c4ccccc4)[C@H]21)C3(C)C [Compound 1883],< 10
